Article PMC9081329, “Pharmacokinetics, Mass Balance, Excretion, and Tissue Distribution of Plasmalogen Precursor PPI-1011” (Frontiers in Cell and Developmental Biology, 2022)
Like-named read-outs stand apart in the source and are kept apart here.

Assays:
[1] = Formulation concentration; format: physicochemical
[2] = design: method as in manuscript in preparation; details: doses up to 1,000 mg/kg in adult rats; ref manuscript in preparation; cited from earlier work
[3] = design: method as in manuscript in preparation; details: 28-day repeat dosing at 400 mg/kg in primates; ref manuscript in preparation; cited from earlier work

CC/C=C\C/C=C\C/C=C\C/C=C\C/C=C\C/C=C\CCC(=O)OC(COCCCCCCCCCCCCCCCC)COC(=O)CCCCC1CCSS1 (stereo not drawn) [PPI-1011, 1-O-hexadecyl-2-O-cis-4,7, 10, 13, 16, 19-docosahexaenoyl-3-O-lipoyl glycerol]
Concentration amenable to formulation [1]: ≤ 500000 µg/mL | Toxicity or adverse effects [2]: no toxicity or adverse effects | Toxicity or adverse effects [3]: no toxicity or adverse effects
